{
  "source": "patent US4227002A",
  "about": "“Halo-A-23187 derivatives” (Eli Lilly and Company, priority 1978, dated 1980)",
  "key": {"[1]": {"system": "mice", "assay": "acute toxicity in mice, intraperitoneal", "assay_type": "in vivo", "settings": "intraperitoneally", "protocol": "(§1) The compounds of the present invention are, in general, less toxic than the parent antibiotic. Table II summarizes the acute toxicities of representative compounds in mice, expressed as LD50, when the compounds are administered intraperitoneally."}, "[2]": {"settings": "cited from earlier work"}, "[3]": {"target": "cation transport ATPase in liver mitochondria", "assay": "inhibition of cation transport ATPase in liver mitochondria, in vitro", "assay_type": "biochemical", "text": "In yet another aspect, the compounds of this invention are active as inhibitors of the enzyme ATPase. ATPase, an alkali-metal-sensitive enzyme found in cell membranes, is involved in the energy necessary for active transport. \"Active transport\" refers to the energy-requiring series of operations whereby intracellular and extracellular fluids maintain their compositions. Inhibitors of ATPase reduce the energy required for active transport. Table V summarizes the results of in vitro tests measuring inhibition of cation transport ATPase in liver mitochondria [measured as half effective concentration (Ic 50) in mcg/ml]."}, "[4]": {"system": "Staphylococcus aureus (H-Heatley strain, NRRL B-314)", "assay": "antibacterial bioassay (J. E. Westhead)", "assay_type": "cell-based", "text": "The compounds of this invention are useful antibacterial agents. In this aspect, these compounds may be used in the same manner in which the parent antibiotic is used, as described in U.S. Pat. No. 3,923,823. A bioassay for the antibacterial activity of A-23187 has been described by J. E. Westhead in Antimicrobial Agents and Chemotherapy 11 (5), 916-918 (1977). The test organism for this bioassay is Staphylococcus aureus (H-Heatley strain, NRRL B-314)."}, "[5]": {"system": "mammalian sperm", "settings": "cited from earlier work"}, "[6]": {"system": "mammalian sperm", "settings": "cited from earlier work", "remark": "listed apart in the source"}, "[7]": {"system": "Bovine Sperum", "settings": "bovine sperm; untreated: 2"}, "[8]": {"system": "Cuinea Pig Sperm", "assay": "effect on acrosome reaction, guinea pig sperm", "assay_type": "cell-based", "settings": "untreated: 110", "text": "Table IV summarizes the effect of an illustrative compound of this invention on mammalian sperm motility and acrosome reaction."}, "[9]": {"assay": "acute toxicity in mice, intraperitoneal", "assay_type": "in vivo", "settings": "mouse, in vivo, ip, intraperitoneally", "protocol": "as §1"}, "[10]": {"system": "bovine spermatozoa", "assay": "Ca^++ influx induced in bovine spermatozoa, inhibition by Mg^++", "assay_type": "cell-based", "settings": "for Ca^++ Influx: bovine spermatozoa", "text": "The compounds of this invention affect ion transport with altered selectivities compared to the parent compound."}, "[11]": {"system": "isolated guinea-pig atria", "assay": "cardiac contractility in isolated guinea-pig atria", "settings": "10^-5 molar", "text": "The compounds of this invention are also potential cardiotonic agents. […] Response to this test is expressed as a percentage of the maximal contractile tension that could be elicited by a challenge dose of norepinephrine (10^-4 M). For a more detailed description of this test, see U.S. Pat. No. 3,985,893. In this test, 4-bromo-A-23187 free acid and its Mg^++ salt, each at a 10^-5 molar concentration, produced mean increases in contractile tension of 48 and 59 percent, respectively."}, "[12]": {"settings": "ATPase induced by K^+ monazomycin"}},
  "note": "“Also recorded” adds a separate entry of the source.",
  "data": [
    {"smiles": "CNc1ccc2oc(CC3OC4(CCC3C)OC(C(C)C(=O)c3cc(Cl)c[nH]3)C(C)CC4C)nc2c1C(=O)[O-].CNc1ccc2oc(CC3OC4(CCC3C)OC(C(C)C(=O)c3cc(Cl)c[nH]3)C(C)CC4C)nc2c1C(=O)[O-].[Mg+2]", "note": "(stereo not drawn) [4-chloro-A-23187 (Mg complex)]", "values": [
      {"measurement": "LD50", "setting": "[1]", "result": 29.8, "unit": "mg/kg × 1"}
    ]},
    {"smiles": "CNc1ccc2oc(CC3OC4(CCC3C)OC(C(C)C(=O)c3ccc[nH]3)C(C)CC4C)nc2c1C(=O)O", "note": "(stereo not drawn) [A-23187 (free acid), reference compound]", "values": [
      {"measurement": "selectivity for transport of divalent over monovalent cations (in words)", "setting": "[2]", "result": "substantially selective for the transport of divalent over monovalent cations; also recorded: not complete"},
      {"measurement": "half effective concentration (Ic 50)", "setting": "[3]; ATPase induced by CaCl2", "result": 0.5, "unit": "µg/mL"},
      {"measurement": "half effective concentration (Ic 50)", "setting": "[3]; [12]", "result": 0.5, "unit": "µg/mL"},
      {"measurement": "Bioassay", "setting": "[4]", "result": 1060, "unit": "µg/mL"},
      {"measurement": "induction of acrosome reaction (in words)", "setting": "[5]", "result": "induces the acrosome reaction"},
      {"measurement": "activation of sperm motility (in words)", "setting": "[6]", "result": "activates the motility"},
      {"measurement": "Motility Index", "setting": "[7]", "result": 4},
      {"measurement": "Time Until Acrosome Reaction", "setting": "[8]", "result": 30, "unit": "min"},
      {"measurement": "LD50", "setting": "[9]", "result": 5.8, "unit": "mg/kg"},
      {"measurement": "Ca^++ Influx", "setting": "[10]; [Mg^++ ]/[Ca^++ ] 0", "result": "3.5 nmole Ca^++ min × mg protein"},
      {"measurement": "Ca^++ Influx", "setting": "[10]; [Mg^++ ]/[Ca^++ ] 5", "result": "2.0 nmole Ca^++ min × mg protein"},
      {"measurement": "Ca^++ Influx", "setting": "[10]; [Mg^++ ]/[Ca^++ ] 10", "result": "1.2 nmole Ca^++ min × mg protein"},
      {"measurement": "Ca^++ Influx", "setting": "[10]; [Mg^++ ]/[Ca^++ ] 20", "result": "0.5 nmole Ca^++ min × mg protein"}
    ]},
    {"smiles": "CNc1c(Br)cc2oc(CC3OC4(CCC3C)OC(C(C)C(=O)c3[nH]c(Br)c(Br)c3Br)C(C)CC4C)nc2c1C(=O)O", "note": "(stereo not drawn) [6-bromo-5-(methylamino)-2-[[3β,9α,11β-trimethyl-8-[1α-methyl-2-oxo-2-(3,4,5-tribromo-1H-pyrrol-2-yl)ethyl]-1,7-dioxaspiro[5.5]undec-2β-yl]methyl]-4-benzoxazolecarboxylic acid]", "values": [
      {"measurement": "Bioassay", "setting": "[4]", "result": 585, "unit": "µg/mL"}
    ]},
    {"smiles": "CNc1c(Br)cc2oc(CC3OC4(CCC3C)OC(C(C)C(=O)c3ccc[nH]3)C(C)CC4C)nc2c1C(=O)O", "note": "(stereo not drawn) [4-bromo-A-23187 (free acid), 6-bromo(or chloro)-5-(methylamino)-2-[[3β,9α,-11β-trimethyl-8-[1α-methyl-2-oxo-2-(1H-pyrrol-2-yl)ethyl]-1,7-dioxaspiro[5.5]undec-2β-yl]-methyl]-4-benzoxazolecarboxylic acid]", "values": [
      {"measurement": "half effective concentration (Ic 50)", "setting": "[3]; ATPase induced by CaCl2", "result": 0.9, "unit": "µg/mL"},
      {"measurement": "half effective concentration (Ic 50)", "setting": "[3]; [12]", "result": 0.3, "unit": "µg/mL"},
      {"measurement": "activation at 10 µM", "setting": "[11]; Cavia porcellus, read-out: mean increase in contractile tension, percentage of the maximal contractile tension elicited by norepinephrine (10^-4 M)", "result": 48, "unit": "%"},
      {"measurement": "Bioassay", "setting": "[4]", "result": 835, "unit": "µg/mL"},
      {"measurement": "Motility Index", "setting": "[7]", "result": 5},
      {"measurement": "Time Until Acrosome Reaction", "setting": "[8]", "result": 30, "unit": "min"},
      {"measurement": "LD50", "setting": "[9]", "result": 11.9, "unit": "mg/kg"},
      {"measurement": "Ca^++ Influx", "setting": "[10]; [Mg^++ ]/[Ca^++ ] 0", "result": "3.4 nmole Ca^++ min × mg protein"},
      {"measurement": "Ca^++ Influx", "setting": "[10]; [Mg^++ ]/[Ca^++ ] 20", "result": "3.4 nmole Ca^++ min × mg protein"},
      {"measurement": "Ca^++ Influx", "setting": "[10]; [Mg^++ ]/[Ca^++ ] 40", "result": "3.4 nmole Ca^++ min × mg protein"},
      {"measurement": "Ca^++ Influx", "setting": "[10]; [Mg^++ ]/[Ca^++ ] 80", "result": "0.5 nmole Ca^++ min × mg protein"},
      {"measurement": "effectiveness of Mg^++ in inhibiting the induced influx of Ca^++ (in words)", "setting": "[10]; compared with comparable dosage of A-23187", "result": "much less effective"}
    ]},
    {"smiles": "CNc1ccc2oc(CC3OC4(CCC3C)OC(C(C)C(=O)c3cc(Br)c[nH]3)C(C)CC4C)nc2c1C(=O)[O-].CNc1ccc2oc(CC3OC4(CCC3C)OC(C(C)C(=O)c3cc(Br)c[nH]3)C(C)CC4C)nc2c1C(=O)[O-].[Mg+2]", "note": "(stereo not drawn) [4-bromo-A-23187 (Mg complex)]", "values": [
      {"measurement": "mean increase in contractile tension, percentage of the maximal contractile tension elicited by norepinephrine (10^-4 M)", "setting": "[11]", "result": 59, "unit": "%"},
      {"measurement": "LD50", "setting": "[1]", "result": 18.75, "unit": "mg/kg × 1"}
    ]},
    {"smiles": "CNc1c(Br)cc2oc(CC3OC4(CCC3C)OC(C(C)C(=O)c3cc(Br)c[nH]3)C(C)CC4C)nc2c1C(=O)O", "note": "(stereo not drawn) [4,23-dibromo-A-23187 (free acid), 6-bromo-5-(methylamino)-2-[[3β,9α,11β-trimethyl-8-[1α-methyl-2-oxo-2-(4-bromo-1H-pyrrol-2-yl)ethyl]-1,7-dioxaspiro[5.5]undec-2β-yl]methyl]-4-benzoxazolecarboxylic acid]", "values": [
      {"measurement": "half effective concentration (Ic 50)", "setting": "[3]; ATPase induced by CaCl2", "result": 0.9, "unit": "µg/mL"},
      {"measurement": "half effective concentration (Ic 50)", "setting": "[3]; [12]", "result": 0.5, "unit": "µg/mL"},
      {"measurement": "Bioassay", "setting": "[4]", "result": 940, "unit": "µg/mL"}
    ]},
    {"smiles": "CNc1c(Cl)cc2oc(CC3OC4(CCC3C)OC(C(C)C(=O)c3ccc[nH]3)C(C)CC4C)nc2c1C(=O)O", "note": "(stereo not drawn) [4-chloro-A-23187 (free acid), 6-bromo(or chloro)-5-(methylamino)-2-[[3β,9α,-11β-trimethyl-8-[1α-methyl-2-oxo-2-(1H-pyrrol-2-yl)ethyl]-1,7-dioxaspiro[5.5]undec-2β-yl]-methyl]-4-benzoxazolecarboxylic acid]", "values": [
      {"measurement": "half effective concentration (Ic 50)", "setting": "[3]; ATPase induced by CaCl2", "result": 10, "unit": "µg/mL"},
      {"measurement": "half effective concentration (Ic 50)", "setting": "[3]; [12]", "result": 0.2, "unit": "µg/mL"},
      {"measurement": "Bioassay", "setting": "[4]", "result": 298, "unit": "µg/mL"},
      {"measurement": "LD50", "setting": "[9]", "result": 10.5, "unit": "mg/kg"}
    ]}
  ]
}
